Source: publication PMC9769880, “Diverse Sensory Repertoire of Paralogous Chemoreceptors Tlp2, Tlp3, and Tlp4 in Campylobacter jejuni” (Microbiology Spectrum, 2022)
Entries after “also recorded” stand apart in the source; their conditions may differ. Read-outs that look alike come from different tables or passages of the source.

Legend:
[1] = biological target: T1, Tlp2 (Campylobacter jejuni, UniProt Q0PBZ3); assay: biochemical; type: binding
Experimental: (§1) His-tagged proteins (Tlp2, -3, and -4) were prepared as previously described ([11]) DNA segments encoding the periplasmic sensory domains (33 to 286 amino acids) of Tlp2 and (38 to 297 amino acids) of Tlp4 were amplified (see Table S7), ligated into pGEM-T Easy (Promega) and subcloned into pET-19b (Novagen) (see Table S6). Recombinant proteins were expressed in E. coli BL21(DE3) using 1 mM IPTG (isopropyl-β-D-thiogalactopyranoside) and purified using His-select-nickel chromatography as described previously ([8], [11]). The purity of the proteins was confirmed by SDS-PAGE and Western blot analysis with anti-His antibodies (Bio-Rad). Protein concentrations were determined using a NanoDrop spectrophotometer (Thermo Fisher).
(§2) Surface plasmon resonance (SPR) experiments were performed as described previously ([10], [11]) with the following modifications. Briefly, purified proteins were diluted to 0.15 μM in sodium acetate (pH 4.0) and immobilized onto an active flow cell of a CM5 sensor chip with a flow rate of 5 μL/min for 7 min of contact time using a standard amine coupling protocol. Immobilized protein levels for all three proteins ranged from 6028.3 to 9779.3 response units (RU) providing a minimum expected response maximum (RMax) between 20 and 50 RU for the small molecules tested. […] All ligands were prepared in PBS (pH 7.2) and serially diluted from 0.2 to 0.0125 mM. A 10-min dissociation period was allocated after the introduction of each analyte. SPR experiments were performed in single-cycle kinetics mode using the BIAcore S200 biosensor system (Cytiva) at 25°C in PBS (pH 7.2) at a flow rate of 30 μL/min. The equilibrium dissociation constant (KD) for each analyte was determined using BIAcore S200 Evaluation software with a report point 4 s after the injection stop to account for the bulk transfer of the small molecule against a large amount of immobilized protein (as shown in Fig. S5).

[2] = biological target: T2, Tlp4 (Campylobacter jejuni, UniProt Q0PBP3); assay: biochemical; type: binding
T2 sequence (Q0PBP3 entry or part of it): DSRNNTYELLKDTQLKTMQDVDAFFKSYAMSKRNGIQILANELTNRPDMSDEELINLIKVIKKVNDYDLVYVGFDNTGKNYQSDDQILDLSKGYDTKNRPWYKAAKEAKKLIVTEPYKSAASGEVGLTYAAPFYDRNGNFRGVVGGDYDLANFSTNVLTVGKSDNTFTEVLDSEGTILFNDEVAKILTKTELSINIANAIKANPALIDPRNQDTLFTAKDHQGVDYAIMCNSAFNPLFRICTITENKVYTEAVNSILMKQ
Experimental: as §1, §2

[3] = biological target: T3, Tlp3 (Campylobacter jejuni, UniProt Q0P864); assay: biochemical; type: binding
T3 sequence (Q0P864 entry or part of it): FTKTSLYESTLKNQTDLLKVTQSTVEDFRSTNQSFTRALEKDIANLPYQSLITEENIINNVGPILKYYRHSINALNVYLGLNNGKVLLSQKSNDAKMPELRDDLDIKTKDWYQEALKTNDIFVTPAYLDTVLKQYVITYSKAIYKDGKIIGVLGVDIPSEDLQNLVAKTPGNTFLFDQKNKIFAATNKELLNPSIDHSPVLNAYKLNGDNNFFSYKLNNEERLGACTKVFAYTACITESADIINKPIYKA
Experimental: as §1, with “The purity of the proteins was confirmed by SDS-PAGE and Western blot analysis with anti-His antibodies (Bio-Rad).” left out
Surface plasmon resonance (SPR) experiments were performed as described previously ([10], [11]) with the following modifications. […] All ligands were prepared in PBS (pH 7.2) and serially diluted from 0.2 to 0.0125 mM. A 10-min dissociation period was allocated after the introduction of each analyte. SPR experiments were performed in single-cycle kinetics mode using the BIAcore S200 biosensor system (Cytiva) at 25°C in PBS (pH 7.2) at a flow rate of 30 μL/min. The equilibrium dissociation constant (KD) for each analyte was determined using BIAcore S200 Evaluation software with a report point 4 s after the injection stop to account for the bulk transfer of the small molecule against a large amount of immobilized protein (as shown in Fig. S5).

[4] = biological target: T1, Tlp2; type: binding
Experimental: (§3) Glycan (>400 monosaccharides or complex glycans) and small molecule arrays containing amino acids and salts were performed as described previously by Day et al. ([67]). Briefly, 1 μg of purified recombinant protein was complexed with anti-His antibody (Cell Signaling Technology) and rabbit anti-mouse/goat anti-rabbit Alexa 555-IgG (Thermo Scientific) at a molar ratio of 1:0.5:0.25 and then incubated on the array for […] in phosphate-buffered saline (PBS). The array slides were scanned at 488/520 nm and analyzed using InnoScan 1100 with MAPIX software. All arrays were performed in triplicate with a total of 12 data points for each glycan tested; the complete data set and MIRAGE (i.e., minimum information regarding a glycomics experiment) results are shown in Tables S3 and S8.
(§4) Table S8 - Supplementary glycan microarray document based on M IRAGE guidelines. D O I:
(§5) Classification Guidelines
(§6) 1. Sample: Glycan Binding Sample
(§7) Origin: Helicobacter pylori SS1; produced as a recombinant His - tagged protein in E.
(§8) The preparation of Tlp2,3, and 4 is explained in the Materials and Methods section:
(§9) Expression and purification of the periplasmic domain of Tlp2,3, and 4.
(§10) Sample Sample is a His Tagged protein containing only the periplasmic receptor domain of the modifications full length Tlp2,3, and 4transmembrane protein.
(§11) Please see Materials and Methods: Tlps 2/3/4 bind to a range of ligands, including […]
(§12) Proteins were complexed with mouse anti- his antibody, with secondary and tertiary AlexaFluor555 antibodies (rabbit anti-mouse, goat anti-rabbit) at a molar ratio of 4:2:1.
(§13) The protein/antibody complex was incubated on ice for 10 mins prior to placing on the Assay protocol array. Arrays were performed with 1 µg of complexed protein incubated on the array for 20 min. Arrays were then washed 3 times in Array PBS (PBS + 2mM MgCl2 + 2mM CaCl2) then dried by centrifugation for 3 min at 300 x g . Scanning was performed us ing an Innopsys InnoScan 1100AL and analyzed using Mapix (Innopsys). Yes/no binding was determined by six positive replicate spots in three replicate experiments. Positive […]
(§14) Glycan Glycans in this study are listed in Table S2 and is a published library in doi:
(§15) Glycans were prepared in one of two ways for printing:
(§16) Glycan 1. Glycans (with IDs in number/letter format; e.g. 1A, 4C, 7K) were sourced modifications commercially from Dextra Laboratories, Elicityl and Carbosythn and were made into glycoamines using the protocol published in Day et al 2009 (doi:
(§17) Glycan arrays: We only use glycan arrays as a yes/no binding tool. Due to this we look only at binding that is unambiguously above background vs lack of binding above background. Average background + 3x standard deviation of the background of 20 sets of 4 spots of DMF:DMSO only spots is applied to determine if binding observed is […]
(§18) Only spots with values equal to or greater than this value were considered as binding from data of any tested slide. These values are slide […]
(§19) Data Small molecule arrays: We only use amino acid arrays as a yes/no binding tool. Due interpretation to this we look only at binding that is unambiguously above background vs lack of binding above background. Average background + 3x standard deviation of the background of 6 spots of PBS + 2% glycerol only spots is applied to determine if […]
(§20) Only spots with values equal to or greater than this value were considered as binding from data of any tested slide. These values are slide dependent. […]

[5] = biological target: T2, Tlp4; type: binding
Experimental: as §3, §4, §5, §6, §7, §8, §9, §10, §11, §12, §13, §14, §15, §16, §17, §18, §19, §20

[6] = biological target: T3, Tlp3; assay: Glycan/small molecule arrays with Tlp3; details: yes/no binding
Experimental: as §3, §4, §5, §6, §7, §8, §9, §10, §11, §12, §13, §14, §15, §16, §17, §18, §19, §20

[7] = system: Tlp2; type: cell-based, C. jejuni 11168-O; details: nutrient-depleted chemotaxis assay
Experimental: (§21) The biological relevance of the binding specificities of the Tlp2,3,4 cluster was assessed by examining chemotactic responses of C. jejuni 11168-O tlp2, tlp3, and tlp4 wild-type (WT) and mutant strains using a nutrient-depleted chemotaxis assay. All ligands, with the exception of lysine and cysteine, interacted with Tlp2 and Tlp4 as attractants (Table 1), showing an ~1- to ~2-log decrease (P < 0.05) in migration toward the ligand compared to the WT strain.
(§22) Chemotaxis assays—the nutrient-depleted chemotaxis assay and the modified hard agar plug assay (tHAP)—were performed as previously described ([11], [34]). The chemotactic responses of all isogenic strains were compared to that of the C. jejuni 11168-O wild-type strain to distinguish between chemoattractants and chemorepellents. For the nutrient-depleted chemotaxis and modified hard agar plug (tHAP) assays, all differences were calculated as changes on a log10 scale. Controls were provided by using nonmotile (C. jejuni 81116 flaAB) and nonchemotactic (C. jejuni NCTC 11168 cheY) mutants ([69]) and mucin as negative and positive controls ([10]).

[8] = biological target: Tlp3^LBD K149A (Campylobacter jejuni, UniProt Q0P864, K149A); assay: biochemical
Chain of Tlp3^LBD K149A (Q0P864 41-290 K149A): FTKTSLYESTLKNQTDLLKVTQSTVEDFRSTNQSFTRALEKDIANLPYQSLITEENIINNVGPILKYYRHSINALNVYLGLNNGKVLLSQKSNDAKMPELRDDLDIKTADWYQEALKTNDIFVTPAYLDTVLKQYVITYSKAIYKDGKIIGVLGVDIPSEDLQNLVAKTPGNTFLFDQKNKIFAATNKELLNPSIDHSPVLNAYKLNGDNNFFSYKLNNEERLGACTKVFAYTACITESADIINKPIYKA

[9] = biological target: Tlp3^LBD D196A (Campylobacter jejuni, UniProt Q0P864, D196A); assay: biochemical
Chain of Tlp3^LBD D196A (Q0P864 41-290 D196A): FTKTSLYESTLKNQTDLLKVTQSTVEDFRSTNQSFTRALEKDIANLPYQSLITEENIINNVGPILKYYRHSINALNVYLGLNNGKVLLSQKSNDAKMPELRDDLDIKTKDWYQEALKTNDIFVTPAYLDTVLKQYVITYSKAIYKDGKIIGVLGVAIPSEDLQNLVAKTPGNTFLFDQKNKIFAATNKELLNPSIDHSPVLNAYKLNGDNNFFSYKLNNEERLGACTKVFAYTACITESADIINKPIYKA

[10] = system: Tlp3; type: cell-based, C. jejuni 11168-O; details: chemotaxis of mutant compared to WT strain
Experimental: as §21, §22

[11] = biological target: Tlp3^LBD W151A (Campylobacter jejuni, UniProt Q0P864, W151A); assay: biochemical
Chain of Tlp3^LBD W151A (Q0P864 41-290 W151A): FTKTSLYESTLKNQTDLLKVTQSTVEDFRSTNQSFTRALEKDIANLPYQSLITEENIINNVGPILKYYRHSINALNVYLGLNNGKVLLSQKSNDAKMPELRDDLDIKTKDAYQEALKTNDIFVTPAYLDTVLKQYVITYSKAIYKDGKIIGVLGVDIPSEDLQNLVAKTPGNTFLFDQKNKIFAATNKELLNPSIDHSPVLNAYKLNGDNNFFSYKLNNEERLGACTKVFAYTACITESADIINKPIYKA

[12] = biological target: Tlp3^LBD D170A (Campylobacter jejuni, UniProt Q0P864); assay: biochemical
Chain of Tlp3^LBD D170A (Q0P864 41-290 T170A): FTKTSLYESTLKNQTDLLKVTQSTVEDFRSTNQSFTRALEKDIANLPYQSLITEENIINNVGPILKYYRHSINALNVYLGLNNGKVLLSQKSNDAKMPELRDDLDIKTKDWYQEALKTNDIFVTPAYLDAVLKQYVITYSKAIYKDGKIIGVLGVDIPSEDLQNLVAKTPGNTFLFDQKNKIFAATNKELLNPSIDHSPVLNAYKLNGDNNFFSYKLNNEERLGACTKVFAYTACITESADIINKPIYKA

[13] = biological target: Tlp3^LBD D169A (Campylobacter jejuni, UniProt Q0P864, D169A); assay: biochemical
Chain of Tlp3^LBD D169A (Q0P864 41-290 D169A): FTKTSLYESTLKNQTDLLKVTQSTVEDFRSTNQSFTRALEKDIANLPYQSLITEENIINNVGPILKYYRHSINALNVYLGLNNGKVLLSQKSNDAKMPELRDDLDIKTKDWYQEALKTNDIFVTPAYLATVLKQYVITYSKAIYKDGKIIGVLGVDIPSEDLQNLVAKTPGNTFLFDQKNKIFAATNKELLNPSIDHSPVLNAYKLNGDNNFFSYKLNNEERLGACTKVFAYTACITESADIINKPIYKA

[14] = SPR KD, mean ± SD, NB = no binding, read-out: Tlp2 Affinity
[15] = SPR KD, mean ± SD, NB = no binding, read-out: Tlp4 Affinity
[16] = SPR KD, mean ± SD, NB = no binding, read-out: Tlp3 Affinity

T1 sequence (Q0PBZ3 entry or part of it): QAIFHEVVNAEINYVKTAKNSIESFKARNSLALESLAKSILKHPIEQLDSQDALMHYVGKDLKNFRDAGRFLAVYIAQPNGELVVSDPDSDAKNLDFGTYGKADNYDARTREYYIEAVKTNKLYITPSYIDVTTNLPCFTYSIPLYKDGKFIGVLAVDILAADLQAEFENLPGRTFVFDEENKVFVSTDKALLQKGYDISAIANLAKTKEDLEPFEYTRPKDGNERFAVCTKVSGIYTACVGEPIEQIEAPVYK

| SMILES | Kd [1, 14] | Kd [2, 15] | Kd [3, 16] | binding to Tlp2 on glycan/small molecule array ([4]; yes/no binding) | binding to Tlp4 on glycan/small molecule array ([5]; yes/no binding) | Kd [1] | Kd [2] | binding to Tlp3 on glycan/small molecule array [6] | binding to Tlp2 on glycan/small molecule array [4] | binding to Tlp4 on glycan/small molecule array [5] | further results |
| --- | --- | --- | --- | --- | --- | --- | --- | --- | --- | --- | --- |
| NC(=O)C[C@H](N)C(=O)O [Asparagine] | 12.8 ± 5.1 µM | 45.1 ± 6.1 µM | > 200 µM | bound | bound | – | – | – | – | – | – |
| N[C@@H](CC(=O)O)C(=O)O [Aspartate] | – | – | – | – | – | 95.4 ± 0.9 µM | 75.3 ± 8.1 µM | bind specifically | bound | bound | – |
| N[C@@H](CS)C(=O)O [Cysteine] | 10.8 ± 3.3 µM | 5.7 ± 5.8 µM | > 200 µM | bound | bound | – | – | – | – | – | chemotactic response via Tlp2 [7]: did not generate any significant chemotactic response; also recorded: did not affect the chemotactic movement |
| O=C[C@H](O)[C@@H](O)[C@@H](O)[C@H](O)CO [Galactose] | – | – | – | – | – | 17.2 ± 1.3 µM | 18.3 ± 2.1 µM | interacted | interacted | interacted | – |
| N[C@H]1C(O)O[C@H](CO)[C@@H](O)[C@@H]1O (stereo partly drawn) [Glucosamine] | > 200 µM | > 200 µM | – | – | – | – | – | – | – | – | Kd [8]: 24.3 ± 2.1 µM; Kd [9]: 45.5 ± 7.3 µM; Kd [3]: 7.1 ± 2.9 µM; Tlp3 CR (chemoresponse) [10]: R; Kd [11]: 34.3 ± 12.7 µM; Kd [12]: 39.7 ± 8.6 µM; Kd [13]: 38.4 ± 6.45 µM |
